Laboratory results published in PubChem BioAssay AID463229 (Broad Institute, 2010).
Active and inactive are the calls of the source.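 How the source made its calls: active means compounds raising the signal whose fitted half-maximal concentration is at or below their top tested dose (cut at about 25 µM in these data); inconclusive means flat fit at 30 to 70% activity, or a poor fit; inactive means the rest.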

test system: INS-1E rat beta cells, no cytokines, CellTiter-Glo ATP, 48 h; assay: ATP level change in INS-1E without cytokines, dose response, counter-screen for beta-cell apoptosis protection project, INS-1E rat cells, ATP luminescence, cherry pick (AID 463229)

Structure (SMILES)	AC50
S=C(c1cn(CCOc2cccc3ccccc23)c2ccccc12)N1CCCC1	7.48 µM
COc1ccc(NC(=O)c2c(Nc3ccccc3)sc(C(=O)c3ccc(F)cc3)c2N)cc1	2.91 µM
COc1ccc(OC)c(NC(=O)CN(Cc2ccc(F)cc2)C2CCCCC2)c1	4.49 µM
Cc1onc(-c2ccccc2)c1C(=O)NC(=S)NNC(=O)c1ccc(O)cc1O	0.657 µM
CC1=CC2/C=C(\C)CCC(O)C(O)/C=C/C(=O)C23C(=O)NC(CC(C)C)C3C1C (stereo unspecified)	7.48 µM
Cc1sc2ncnc(N/N=C/c3ccccc3O)c2c1C	3.03 µM
COCC1CCCCN1C(=O)c1cc(COc2ccc3ncccc3c2)on1 (stereo unspecified)	7.39 µM
COc1ccc(NC(=O)/C(Cl)=C(/Cl)S(=O)Cc2ccc(C)cc2)cn1 (stereo unspecified)	1.3 µM
Cc1ccc2c(c1)S/C(=C/c1ccc[n+](C)c1)N2CCO	3.24 µM
COc1cccc(N2CCN(c3ncnc4c3[nH]c3ccc(F)cc34)CC2C)c1 (stereo unspecified)	3.09 µM
CC(C)Oc1ccc(S(=O)(=O)N2CCCCC2)cc1NC(=O)CN1CCCC1c1cccs1 (stereo unspecified)	6.59 µM
CCCCCc1cc(=O)oc2c(C(CCN(CC)CC)c3ccc(OC)cc3)c(OC)cc(OC)c12 (stereo unspecified)	14 µM
N#CCSc1nc2ccccc2c2nc3ccccc3n12	10.3 µM
C=CCSc1nc2ccccc2n1C(=O)/C=C/c1ccc(OC)c(OC)c1	11 µM
COC(=O)c1c(C)oc2ccc(N(C(=O)c3ccncc3)S(=O)(=O)c3ccc4ccccc4c3)cc12	17.9 µM
COc1ccc(C(=O)NC(=S)NNC(=O)c2cnccn2)cc1	5.21 µM
CCN(CC)CCOc1ccc2c(c1)C(=NNC(=O)c1ccccn1)c1cc(OCCN(CC)CC)ccc1-2	13.8 µM
O=C([O-])c1cc(-c2ccccc2)cc(-c2ccccc2)[n+]1Cc1ccccc1	1.98 µM
CCOc1ccc(C(=O)c2cc([N+](=O)[O-])ccc2N2CCOCC2)cc1	0.371 µM
Cc1ccc(CSC(Nc2ccc(F)cc2)=C(C#N)C#N)cc1	4.11 µM
O=C1C=C(Nc2ccc(O)cc2)C(=O)c2ccccc21	13.6 µM
Cc1ccc(C)c(N2CCN(C(=O)CCCOc3cc(=O)n(C)c4ccccc34)CC2)c1	2.7 µM

Structure (SMILES)	AC50
CNC[C@@H](Cc1ccccc1)NC[C@@H](CC1CCCCC1)NCCCc1ccccc1	7.41 µM
Cn1ncnc2c(=O)n(C)c(=O)nc1-2	1.48 µM
Cc1ccccc1CNc1ccc(C(CC(N)=O)NC(=O)c2ccc(Br)cc2)cc1[N+](=O)[O-] (stereo unspecified)	15.7 µM
C#Cc1ccc([C@@H]2C=C(C(=O)N3CCN(Cc4ccccc4)CC3)O[C@H](OCCCCO)C2)cc1	2.13 µM
O=C(CN(Cc1ccco1)Cc1ccco1)Nc1cc(S(=O)(=O)N2CCCCC2)ccc1Cl	7.47 µM
CCOC(=O)c1cnc(-n2nc(C)cc2C)nc1NC(C)c1ccccc1 (stereo unspecified)	13.7 µM
CCc1ccc(S(=O)(=O)/N=C2/C=C(Sc3ncn[nH]3)C(=O)c3ccccc32)cc1	9.6 µM
CCc1c(C)sc2nc(C(C)C)nc(SCC(=O)N3CCc4ccccc4C3)c12	2.08 µM
Cc1nc(NCCc2ccc(S(N)(=O)=O)cc2)c2c(C)c(C)sc2n1	6.2 µM
Oc1c(CN2CCN(c3ccccn3)CC2)cc(Cl)c2cccnc12	5.4 µM
COc1nc(Nc2nc3ccccc3c(=O)[nH]2)nc2ccc(C)cc12	2.31 µM
Brc1ccc(N/N=C(/N=Nc2nn[nH]n2)c2ccccc2)cc1	3.51 µM
CCN(CC)c1ccc(/C=N/N(c2ccccc2)c2ccccc2)c(O)c1	4.58 µM
COc1cc(-c2nc3ccc(C)cn3c2NCc2ccccc2)ccc1SC1CCCCC1	5.49 µM
Cc1ccccc1Oc1cc(NC(=O)CCCn2nc(C)c([N+](=O)[O-])c2C)cc([N+](=O)[O-])c1	6.44 µM
CCC(=O)NC(c1cc(Cl)c2cccnc2c1O)C(C)C (stereo unspecified)	7.3 µM
CCCOc1ccc(/C=N/NC(=S)Nc2ccccc2[N+](=O)[O-])c(O)c1	7.44 µM
O=C(Cn1c(-c2ccccc2)c[n+]2ccsc12)c1ccc([N+](=O)[O-])cc1	6.04 µM
Cc1ccc2nc(NC(=O)c3ccccn3)sc2c1	9.36 µM
Cc1ccc(S(=O)(=O)/N=C2\C=C(Nc3cccc(C(=O)O)c3)C(=O)c3ccccc32)c(C)c1	7.81 µM
CC(=O)NC(c1cc(Cl)c2cccnc2c1O)C1CC1 (stereo unspecified)	7.49 µM
CN(C)S(=O)(=O)c1cccc(N=C2NN=C(c3ccccc3)CS2)c1	4.4 µM

Structure (SMILES)	AC50
COc1ccc(N/N=C(/N=Nc2nc(C)cc(=O)[nH]2)c2ccccc2)cc1	1.78 µM
Cc1cccc2c(C(=O)N3CCN(c4ccccn4)CC3)cc(-c3cccc(Br)c3)nc12	3.08 µM
C=C1C(=O)O[C@@H]2C[C@@H](C)[C@@H]3C=CC(=O)[C@@]3(C)[C@@H](OC(=O)CC(=O)O[C@H]3[C@@H]4C(=C)C(=O)O[C@@H]4C[C@@H](C)[C@@H]4C=CC(=O)[C@]43C)[C@H]12	0.386 µM
CCCCCCCCCCn1c2c(c(=N)c3c1CCC3)CCC2	< 0.195 µM
CCCCC(=O)NC(c1ccco1)c1cc(Cl)c2cccnc2c1O (stereo unspecified)	12.4 µM
Cc1ccc(Nc2c3c(nc4ccccc24)CCC3)cc1	16 µM
C/C(=N\NC(=O)c1cc(C2CC2)nc2ccccc12)c1ccc(O)cc1O	5.61 µM
CCCCC(=O)NC(c1ccccc1Cl)c1ccc2cccnc2c1O (stereo unspecified)	2.09 µM
Cc1nn(C)c(C)c1CN(Cc1nc(CCC(C)C)no1)C(C)C	4.22 µM
COc1cccc(N=Nc2ccc3cccnc3c2O)c1	6.8 µM
CCOc1ccccc1NC(=O)C(=O)N/N=C/c1cc(Br)ccc1O	4.36 µM
Cc1ccccc1N1CCN(Cc2c[nH]c3ccccc23)CC1	7.37 µM
CCCCC(=O)N1C/C=C\C(c2ccc(OC)cc2)N(Cc2ccc(F)cc2)C(=O)[C@H]1Cc1ccccc1 (stereo partly specified)	7.74 µM
CCN(CC)c1ccc(/C=N/NC(=O)Cc2cccs2)c(O)c1	4.5 µM
O=C(Nc1ccc2nc3n(c(=O)c2c1)CCCCC3)c1c(F)ccc([N+](=O)[O-])c1F	6.65 µM
CN1/C(=C\C(=O)CN2C(=O)NC3(CCCCCC3)C2=O)C(C)(C)c2ccccc21	7.99 µM
O=C(Nc1cc(Sc2ccccn2)cc([N+](=O)[O-])c1)c1cccc(F)c1	8.51 µM
c1ccc(C(c2ccccc2)N2CCN(c3nc4ccccc4n4cnnc34)CC2)cc1	4.73 µM
O=C(Nc1cccc(Cl)c1)Nc1nnc(CSCCOc2ccc(Cl)cc2)s1	5.39 µM
Nc1nc2ccccc2n1/N=C/c1ccc([N+](=O)[O-])s1	7.19 µM
CCOc1ccc(-n2c(-c3ccc(Br)cc3)c[n+]3c2CCCCC3)cc1	1 µM
Oc1cccc2ccc(Nc3ccccn3)nc12	2.27 µM

Structure (SMILES)	AC50
Cc1ccc(C(=O)N/C(=C\c2ccc(-c3ccc(Br)cc3)o2)C(=O)NCCCN(C)C)cc1	7.87 µM
O=C(Nc1nc2ccccc2s1)c1cc(-c2ccccc2)nn1-c1ccccc1	3.74 µM
Clc1ccc(CSc2ccc(-c3ccccn3)nn2)cc1	6.32 µM
Cc1ccc(S(=O)(=O)Nc2ccc(NC(=O)Nc3cccc(C(F)(F)F)c3)cc2)cc1	11.9 µM
COc1ccc(C(C(=O)NC2CCCCC2)N(C(=O)CCl)c2cccc(Cl)c2)cc1 (stereo unspecified)	7.03 µM
N#C/C(=N\Nc1cccc([N+](=O)[O-])c1)C(=O)c1ccc(Br)cc1	7.29 µM
CCOC(=O)c1c(NC(=O)c2cc(-c3ccc(Cl)s3)nc3ccccc23)sc(C(N)=O)c1C	11.5 µM
C#CCOCCOCCOCCNc1nc(N2CCN(C(=O)CCCCCCCCCCNC(=O)[C@H]([C@@H](C)CC)n3cc(CCCCN=C(N)N)nn3)CC2)nc(N2CCN(C(=O)CCCCCCCCCCNC(=O)[C@H](CO)n3cc(CCCCCN)nn3)CC2)n1	7.67 µM
CC1(C)CC(=O)C2=C(C1)OC1=C(C(=O)CC(C)(C)C1)C2c1ccc(O)cc1O	7.31 µM
FC(F)(F)c1nnc2c(Sc3ccccc3)nc3ccc(Cl)cc3n12	11.1 µM
COc1cc(C(=O)N/N=C(\c2ccccc2)c2ccccn2)cc(OC)c1OC	3.3 µM
CC(C)c1nc(-c2ccccc2)c(-c2ccccc2)[nH]1	6.81 µM
Cc1nc(C)c(C(=O)N/N=C/c2cc(Br)ccc2O)s1	7.57 µM
CC(=O)Nc1sc2c(c1-c1nc3ccccc3s1)CN(C(C)C)CC2	3.79 µM
COc1cc(OC)c(NC2=CC(=O)C(=O)c3ccccc32)cc1Cl	8.07 µM
N#Cc1c([N+](=O)[O-])cc([N+](=O)[O-])cc1S(=O)(=O)Cc1ccccc1	4.91 µM
Cc1cc(Nc2cccc(Cl)c2)nc(NCc2ccccc2)n1	6.46 µM
COc1ccccc1NC(=O)c1cc2cc(Br)ccc2cc1O	7.8 µM
COc1cccc(F)c1C(C[N+](=O)[O-])c1c(N)n(C)c(=O)n(C)c1=O (stereo unspecified)	8.3 µM
CC(=O)/C=C1\N(C)c2ccc(C)cc2C1(C)C	7.3 µM
CC[N+](C)(CC)CCC(c1ccccc1)C1CCCCC1 (stereo unspecified)	> 26 µM (inactive)
O=C(N/N=C(\c1ccccc1)c1cccnc1)c1cccc(F)c1	2.56 µM

Structure (SMILES)	AC50
O=C(CCC1CCCC1)Nc1ccc(C(=O)NCc2cccnc2)cc1	< 0.195 µM
Cc1sc2ncnc(NC3CCN(Cc4ccccc4)CC3)c2c1C	5.11 µM
CC1(C)C[C@@H]2C[C@@](C)(CN2C(=O)c2cc(COc3cccc(C(F)(F)F)c3)on2)C1	17 µM
COc1ccc(-c2nc(NC(=O)c3cc(C(C)(C)C)nn3C)sc2C)cc1	17.6 µM
Cc1nc(Nc2ccc(Cl)c(Cl)c2)sc1C(=O)Nc1ccccc1	9.24 µM
CC[C@@H](C(=O)[C@@H](C)[C@@H](O)[C@H](C)CCc1ccc(C)c(O)c1C(=O)O)[C@H]1O[C@](CC)([C@H]2CC[C@](O)(CC)[C@H](C)O2)C[C@@H]1C	2.49 µM
O=C(Nc1cccnc1)c1cccnc1	10.9 µM
CCCCCCCCCCCCCCCC[N+](C)(C)C	7.81 µM
Cc1nnc(N/N=C/c2ccccn2)[nH]c1=O	5.46 µM
Cc1c(/C=N/Nc2nc3ccccc3[nH]2)c2ccccc2n1C	6.36 µM
Cc1cc([N+](=O)[O-])nn1Cc1ccc(C(=O)N/N=C/c2ccc(O)cc2O)cc1	6.27 µM
COc1ccccc1C(=O)Nc1nc(-c2ccc(S(=O)(=O)N3CCOCC3)cc2)cs1	5.29 µM
CC(C)(C)c1cc([N+](=O)[O-])cc(C(C)(C)C)c1O	2.8 µM
O=C(NC1(Cc2ccccc2)CCN(CCCc2ccccc2)C1=O)c1ccccc1 (stereo unspecified)	4.71 µM
O=C(Nc1cccc(C(F)(F)F)c1)Nc1ccc(N2CCCC2)c(S(=O)(=O)Nc2ccccc2Cl)c1	4.27 µM
Clc1ccc(OCCN2CCN(c3ncnc4sccc34)CC2)cc1	0.726 µM
c1ccc(-c2nc(NCc3ccco3)c3ccccc3n2)nc1	8.46 µM
CCOC(=O)c1c(C)[nH]c(C(=O)OCC(=O)NC(C)(C)C)c1C	13.1 µM
